Values joined by “and” are separate entries in the source; they are usually repeats but may differ in a detail not shown here. Equal values may be shown once.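 1) Cells in 96-well plates. 2) Compound, 48 h, 5 concentrations. 3) Linear interpolation between surrounding doses. 4) Unreached endpoint = highest concentration. GI50 = concentration required for 50% inhibition of growth. TGI: total growth inhibition.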
Tests used:
Assay in all cases: growth of human tumour cells (NCI), 48 h
[1] = test system: A498 renal
[2] = test system: UACC-257 melanoma
[3] = test system: HL-60(TB) leukemia
[4] = test system: TK-10 renal
[5] = test system: MDA-MB-231 breast
[6] = test system: UO-31 renal
[7] = test system: T-47D breast
[8] = test system: HCC-2998 colon
[9] = test system: SN12C renal
[10] = test system: SF-539 CNS
[11] = test system: NCI/ADR-RES ovarian
[12] = test system: UACC-62 melanoma
[13] = test system: OVCAR-5 ovarian
[14] = test system: COLO 205 colon
[15] = test system: IGROV1 ovarian
[16] = test system: SF-295 CNS

SMILES | TGI [1] | TGI [2] | TGI [3] | TGI [4] | TGI [5] | TGI [6] | TGI [7] [µM] | TGI [8] | TGI [9] | TGI [10] | TGI [11] | TGI [12] [µM] | TGI [13] | TGI [14] | TGI [15] [µM] | TGI [16] | GI50 [7] [µM] | GI50 [14] [µM]
CCC[C@H](NS(=O)c1ccc(C)cc1)C(C(=O)OCC)=C(c1ccccc1)c1ccccc1 (stereo not given in full) | 46 µM | 33.5 µM | > 100 µM | 97 µM | > 100 µM | 31.2 µM | 88.6 | 15.3 µM | 41.7 µM | 48.5 µM | > 100 µM | 31.5 | 43.4 µM | 46.1 µM | 75.8 | 40 µM |  | 
NCCN1C(=O)CN=C(c2ccc(Cl)cc2)c2cc(Cl)ccc21 | 33.8 µM | 34.9 µM | 37.7 µM | 30.5 µM | 30.5 µM | 27.3 µM | 59.3 | 31.8 µM | 62.9 µM | 34.1 µM | 32.8 µM | 32.2 | 30.9 µM | 38.7 µM | 27.1 | > 100 µM |  | 
COC(=O)/C=C1/CCC(C)(C(=O)NS(=O)(=O)c2ccc(C)cc2)C1(C)C (stereo not given) | > 100 µM | > 100 µM | > 100 µM | > 100 µM | > 100 µM | > 100 µM | > 100 | > 100 µM | > 100 µM | > 100 µM | > 100 µM | > 100 | > 100 µM | > 100 µM | > 100 | > 100 µM |  | 
CC(=O)O[C@H]1/C(=C/c2ccncc2)C[C@H]2[C@@H]3CC=C4C[C@@H](N5CCCC5)CC[C@]4(C)[C@H]3CC[C@]12C | 30.9 µM | 6.42 µM | 26.1 µM | 29.5 µM | 35 µM | 18.1 µM | 29.3 | 26 µM | 30.8 µM | 35 µM | 25.1 µM | 27.5 | 27.2 µM | 25.5 µM | 27.1 | 29.4 µM |  | 
COCCCNC(=O)C1=C(C)NC(C)=C(C(=O)NCCCOC)C1 | > 100 µM | > 100 µM | > 100 µM | > 100 µM | > 100 µM | > 100 µM | > 100 | > 100 µM | > 100 µM | > 100 µM | > 100 µM | > 100 | > 100 µM | > 100 µM | 26.9 | > 100 µM |  | 
Cc1ccc(-c2cc(C(F)(F)F)nn2-c2ccc(S(N)(=O)=O)cc2)cc1 | 43.4 µM | > 58.3 µM | 42.7 µM | > 59.2 µM | > 54.2 µM | > 53.2 µM | > 61.8 | 33.1 µM | 42.1 µM | > 59.4 µM | 43.1 µM | > 53.6 | > 59.8 µM | 50.8 µM | > 54.6 | 55.4 µM |  | 
CCCCCCOc1ccc(C(=O)NO)cc1 | 28.1 µM | > 91.5 µM | 14 µM | > 100 µM | 21.9 µM | 20.1 µM | 41.3 | 28.3 µM | 19.5 µM | 45.7 µM | 18.5 µM | 20.6 | 40.4 µM | 26 µM | 23.2 | 40.9 µM |  | 
C=C(C)[C@H]1C=C[C@@H](OC(=O)c2cccnc2)[C@@]23CO[C@@](C)([C@H](OC(=O)c4cccnc4)[C@@]4(OC(C)=O)C[C@H](C)[C@H](OCCC)[C@@H]4[C@H]2OC(C)=O)[C@H]13 | > 15 µM | > 15 µM | 14.1 µM | > 15 µM | > 15 µM | > 15 µM | > 15 | > 15 µM | > 15 µM | > 15 µM | > 15 µM | > 15 | > 15 µM | > 15 µM | > 15 | > 15 µM |  | 
Cc1nc2c(=O)n(-c3ccccc3)c3ccccc3c2o1 | > 100 µM | > 100 µM | > 100 µM | > 100 µM | > 100 µM | > 100 µM | > 100 | > 100 µM | > 100 µM | > 100 µM | > 100 µM | > 100 | > 100 µM | > 100 µM | > 100 | > 100 µM |  | 
O=P1(Oc2ccccc2)N(CCCl)CCN1c1ccccc1 (stereo not given) | > 100 µM | > 100 µM | > 100 µM | > 100 µM | > 100 µM | > 100 µM | > 100 | > 100 µM | > 100 µM | > 100 µM | > 100 µM | > 100 | > 100 µM | > 100 µM | > 100 | > 100 µM |  | 
Nc1ccn(C2CCC(CO)O2)c(=S)n1 (stereo not given) | > 100 µM | > 100 µM | > 100 µM | > 100 µM | > 100 µM | > 100 µM | > 100 | > 100 µM | > 100 µM | > 100 µM | > 100 µM | > 100 | > 100 µM | > 100 µM | > 100 | > 100 µM |  | 
COc1ccc2[nH]cc([C@@H]3C4CCC(C4)[C@H]3NCc3cccc(CN[C@H]4C5CCC(C5)[C@@H]4c4c[nH]c5ccc(OC)cc45)c3)c2c1 | 3.22 µM and 3.25 µM | 3.15 µM and 2.74 µM | 0.453 µM and 0.503 µM | 2.87 µM and 3.03 µM | 2.42 µM and 2.98 µM | 2.85 µM and 2.64 µM | 2.95 | 0.53 µM and 0.842 µM | 3.1 µM and 2.93 µM | 3.21 µM and 2.5 µM | 3.04 µM and 2.98 µM | 3.19 | 3.12 µM and 2.88 µM | 1.2 µM and 0.427 µM | 2.61 | 2.97 µM and 3.08 µM | 1.33 | 0.206
O=C(c1ccccc1)c1ccc(-n2c3ccccc3c3ccc4c(c32)C(=O)C=CC4=O)cc1 | 25.3 µM | 27.5 µM | 18.2 µM | 25.3 µM | 26.2 µM | 7.78 µM | > 22.6 | 29.6 µM | 28.3 µM | 34.2 µM | 60.5 µM | 26.7 | 38.1 µM | 25.9 µM | 37.5 | 32.4 µM |  | 
Cc1ccc(Nc2c(C#N)[n+]([O-])c3cc(Cl)ccc3[n+]2[O-])cc1 | > 100 µM | > 100 µM | 21.1 µM | > 100 µM | > 100 µM | > 100 µM | > 100 | > 100 µM | > 100 µM | > 100 µM | > 100 µM | > 100 | > 100 µM | > 100 µM | > 100 | > 100 µM |  | 
CN(C)P(=O)(Oc1ccc(CC(NC(=O)OCc2ccccc2)C(=O)OCc2ccccc2)cc1)N(C)C (stereo not given) | 38.1 µM | 47.5 µM | 32.9 µM | 47 µM | 34.3 µM | 33.3 µM | 52.3 | 37.8 µM | 31.8 µM | 39.7 µM | 36.2 µM | 31.5 | 38.6 µM | 42.8 µM | 32.9 | 34.5 µM |  | 
Cc1oc2c(Cl)cc(O)c(Cl)c2c2cccc1-2 | > 100 µM | > 100 µM | > 100 µM | > 100 µM | > 100 µM | > 100 µM | 16.5 | > 100 µM | 80.7 µM | 71.4 µM | 79.9 µM | > 100 | > 100 µM | > 100 µM | 75.4 | > 100 µM |  | 
CCc1n[nH]c(=O)n1/N=C/c1ccc(C)cc1 | > 100 µM | > 100 µM | > 100 µM | > 100 µM | > 100 µM | > 100 µM | > 100 | > 100 µM | > 100 µM | > 100 µM | > 100 µM | > 100 | > 100 µM | > 100 µM | > 100 | > 100 µM |  | 
O=c1[nH]nc(Cc2ccccc2)n1/N=C\c1ccccc1 | > 100 µM | > 100 µM | > 100 µM | > 100 µM | > 100 µM | > 100 µM | > 100 | > 100 µM | > 100 µM | > 100 µM | > 100 µM | > 100 | > 100 µM | > 100 µM | > 100 | > 100 µM |  | 
